Here are results for two molecules from PMC11811597, “Phenomics‐Based Discovery of Novel Orthosteric Choline Kinase Inhibitors” (Angewandte Chemie (International Ed. in English), 2025).

In assay [1] the test system is MCF7, MDA‐MB‐231, HEK293, HepG2, U2OS and K562 cells. Kind of assay: 72 h cell viability assay (Cell Titer-Glo). Particulars: 0-50 μM. It counts as cell-based, human. The source says: We compared morphological fingerprints of multiple parameters to assess overall biological similarity (Biol. Sim.) (Figure 1B).
A-366 and UNC0638 were purchased from Tocris. ARIAD and V-11-07-11 were purchased from Wuxi Apptec. UNC0737 and UNC0965 were synthesised as previously described.[1] Hemicholinium-3 and pyruvate kinase/lactic dehydrogenase enzymes were purchased from Sigma Aldrich. Aqueous and organic solvents were MS-grade and acquired by Sigma Aldrich unless stated otherwise.
MDA-MB-231, MCF7 and HEK293 cells were cultured in DMEM (Gibco, #11965092) supplemented with 10% FBS. K562 were cultured in IMDM (Gibco, #12440053) supplemented with 10% FBS. HepG2 were cultured in MEM (Gibco, #11095080) supplemented with 10 % FBS. […]
cultured in McCoy’s 5A (Sigma, M8403) supplemented with 10 % FBS and 1x GlutaMAX (Gibco, #35050061). Cells were maintained at 37 °C in a humidified 5% CO2 atmosphere. Peripheral blood mononuclear cells (PBMC) were isolated from healthy blood donors by density centrifugation.
MDA-MB-231, MCF7 or HEK293 cells (7.5 × 10^4 cells/mL) were each plated into x1 white 384-well polystyrene plate (Greiner Bio-One Ltd). A-366, […] and UNC0737 were directly added to each well of the cell line plates, at final concentrations 0-50 μM and incubated for 72 h at 37 °C/ 5% CO2.
Cell Titer-Glo® reagent was added to each well and total luminescence readings were performed within 15 min using the PHERAstar FSX (BMG Labtech). The cell viability results were normalised to the DMSO control and plotted using the sigmoidal dose-response (variable slope) equation in […]
Chemical Proteomics Drug Pulldown
For lysate generation MCF7 cells were grown until approximately 80% confluency before being pelleted and washed with PBS. […]
MDA-MB-231, […], HepG2, U2OS and K562 cells following treatment with A-366, UNC0638 and UNC0737 after 72 h measured by Cell Titer Glo assay (n=3). […]
For orientation: Cellular ATP, detected with luciferase, serves as a proxy for viable cell number.

The target of the next assay is T1, GVINP1 (Homo sapiens, UniProt Q7Z2Y8).
T1 construct: endogenous in cells; host or cells: intact HepG2 cells
Kind of assay: PISA thermal profiling, intact HepG2 cells. Format: cell-based. The note with it: 30 µM, 60 min, n=3. The source says: To further corroborate our findings, we next performed the proteome integral solubility alteration (PISA) assay in HepG2 human hepatoma cells that express high levels of CHKA. Conceptually building on the cellular thermal shift assay (CETSA) with mass spectrometry based detection,[19, 20] PISA leverages compound‐mediated stabilisation of target proteins without the need of chemical modification in intact cells. […]
carried out using REFMAC[9] and COOT,[10] and concluded when no improvements resulted for Rfree and Rwork values, and when density maps indicated no further changes were justified.
Choline Coupled Enzymatic Assay
CHKA (120 ng, 24 µg/ml) was arrayed (5 µL) into a 96 well semi-skirted real time PCR plate. 4-fold dilution series and vehicle controls (0.5% DMSO) were prepared in a separate plate. A further DMSO control was included for use with a no protein well control. […]
After mixing, bubbles were removed by centrifugation (1000 × g, 1 min) and absorbance read at 340 nm on a PheraSTAR FSX (BMG Labtech), reading every minute for 10 min. […]
by centrifugation at 30,000 × g for 20 min at 4 °C. The soluble fractions were collected to fresh tubes and further processed to be analysed with mass spectrometry. […]
Sample preparation for the quantification of metabolites by nuclear magnetic resonance (NMR) spectroscopy was performed as described previously.[13] […]

T1 sequence (Q7Z2Y8 whole entry): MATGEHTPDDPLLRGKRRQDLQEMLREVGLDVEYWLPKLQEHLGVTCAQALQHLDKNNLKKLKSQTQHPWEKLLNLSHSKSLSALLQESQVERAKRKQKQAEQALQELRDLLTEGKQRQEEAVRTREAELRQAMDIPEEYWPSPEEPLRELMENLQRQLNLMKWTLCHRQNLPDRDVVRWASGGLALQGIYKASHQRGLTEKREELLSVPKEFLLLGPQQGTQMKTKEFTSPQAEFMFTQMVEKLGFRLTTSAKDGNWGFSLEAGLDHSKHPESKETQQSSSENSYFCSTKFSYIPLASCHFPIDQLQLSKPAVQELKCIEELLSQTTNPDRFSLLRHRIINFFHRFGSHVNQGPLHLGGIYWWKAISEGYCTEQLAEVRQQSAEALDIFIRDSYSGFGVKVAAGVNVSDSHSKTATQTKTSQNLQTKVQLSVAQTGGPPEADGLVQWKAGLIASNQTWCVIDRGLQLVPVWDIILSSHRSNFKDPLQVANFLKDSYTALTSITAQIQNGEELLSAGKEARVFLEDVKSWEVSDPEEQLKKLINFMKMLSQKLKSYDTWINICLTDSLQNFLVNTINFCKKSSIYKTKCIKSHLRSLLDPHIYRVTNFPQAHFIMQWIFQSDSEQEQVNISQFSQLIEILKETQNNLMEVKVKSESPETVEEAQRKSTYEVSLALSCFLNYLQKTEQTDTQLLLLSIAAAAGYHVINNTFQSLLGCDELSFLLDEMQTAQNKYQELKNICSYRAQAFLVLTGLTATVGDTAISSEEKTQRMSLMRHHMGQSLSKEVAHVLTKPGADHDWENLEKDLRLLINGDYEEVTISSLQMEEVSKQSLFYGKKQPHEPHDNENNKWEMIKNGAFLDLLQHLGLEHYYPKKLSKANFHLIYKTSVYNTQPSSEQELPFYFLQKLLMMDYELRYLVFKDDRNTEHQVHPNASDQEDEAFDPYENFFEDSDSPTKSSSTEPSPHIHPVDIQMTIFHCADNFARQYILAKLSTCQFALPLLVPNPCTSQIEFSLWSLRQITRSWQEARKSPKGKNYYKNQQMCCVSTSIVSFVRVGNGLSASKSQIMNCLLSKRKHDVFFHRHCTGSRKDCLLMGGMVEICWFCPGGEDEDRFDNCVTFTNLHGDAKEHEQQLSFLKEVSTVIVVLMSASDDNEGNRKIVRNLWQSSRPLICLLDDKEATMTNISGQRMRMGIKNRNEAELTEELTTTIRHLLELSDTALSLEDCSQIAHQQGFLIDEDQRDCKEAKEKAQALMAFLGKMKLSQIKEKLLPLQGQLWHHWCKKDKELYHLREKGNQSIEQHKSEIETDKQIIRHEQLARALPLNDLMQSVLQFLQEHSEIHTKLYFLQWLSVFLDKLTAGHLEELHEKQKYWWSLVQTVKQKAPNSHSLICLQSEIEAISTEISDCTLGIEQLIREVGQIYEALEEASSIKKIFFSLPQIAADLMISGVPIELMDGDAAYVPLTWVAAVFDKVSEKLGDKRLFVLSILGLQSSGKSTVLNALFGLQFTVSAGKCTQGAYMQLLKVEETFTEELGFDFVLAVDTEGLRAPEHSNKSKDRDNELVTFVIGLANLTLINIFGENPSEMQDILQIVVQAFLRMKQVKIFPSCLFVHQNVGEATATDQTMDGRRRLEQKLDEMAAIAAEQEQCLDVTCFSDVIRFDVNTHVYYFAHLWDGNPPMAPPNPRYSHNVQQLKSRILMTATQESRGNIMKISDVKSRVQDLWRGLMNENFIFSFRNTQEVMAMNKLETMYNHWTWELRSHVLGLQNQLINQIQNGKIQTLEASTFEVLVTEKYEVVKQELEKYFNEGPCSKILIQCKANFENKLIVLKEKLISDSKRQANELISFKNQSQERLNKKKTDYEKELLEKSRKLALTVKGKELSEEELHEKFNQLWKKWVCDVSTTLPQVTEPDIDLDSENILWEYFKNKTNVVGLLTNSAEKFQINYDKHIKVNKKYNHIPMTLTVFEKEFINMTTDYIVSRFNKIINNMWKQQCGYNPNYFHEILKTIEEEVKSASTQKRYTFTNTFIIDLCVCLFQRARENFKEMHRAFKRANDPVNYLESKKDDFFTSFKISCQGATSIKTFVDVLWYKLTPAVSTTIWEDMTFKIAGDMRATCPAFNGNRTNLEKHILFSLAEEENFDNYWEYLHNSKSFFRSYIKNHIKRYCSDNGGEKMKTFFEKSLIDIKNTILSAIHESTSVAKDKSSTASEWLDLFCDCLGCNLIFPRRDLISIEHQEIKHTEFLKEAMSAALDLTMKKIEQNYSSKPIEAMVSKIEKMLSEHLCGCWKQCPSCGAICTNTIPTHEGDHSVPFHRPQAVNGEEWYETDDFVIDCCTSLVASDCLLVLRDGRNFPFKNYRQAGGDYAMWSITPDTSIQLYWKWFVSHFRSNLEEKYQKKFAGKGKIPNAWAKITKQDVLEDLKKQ

Regarding `COc1cc2c(NC3CCN(C(C)C)CC3)nc(C3CCCCC3)nc2cc1OCCCN1CCCC1` [UNC0638], the “effect on cell viability” value in assay [1] is given as “antiproliferative effects”. The “effect_CETSA_Intact (PISA amplitude), GVINP1” value at GVINP1 worked out at 0.358.
Regarding `COc1cc2c(N(C)C3CCN(C(C)C)CC3)nc(C3CCCCC3)nc2cc1OCCCN1CCCC1` [UNC0737], the “effect on cell viability” value in assay [1] is reported as “antiproliferative effects”. Also, at GVINP1, the “effect_CETSA_Intact (PISA amplitude), GVINP1” value is 0.871.
